The test system of this test is HEK293T cells carrying the ATF4 luciferase reporter. Briefly: ATF4-Luc assay, in vitro model of Vanishing Cell White Matter Disease (VWMD). It is filed as cell-based. As to conditions: Homo sapiens, HEK-293T, 1 μg/mL tunicamycin, 7 hours, One Glo luminescence. The method in brief:
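Compound at 200 nM and tunicamycin at 1 μg/mL were given together for 7 h to HEK293T cells stably transduced with an ATF4 5′-UTR-driven firefly luciferase reporter. Read-out by luminescence, reported as EC50.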
In general, EC50 refers to the concentration at which the effect is half-maximal. Take `O=C(COc1ccc(Cl)c(F)c1)NC12CC(NC(=O)c3coc4ccccc34)(C1)C2` [Compound 243, N-{3-[2-(4-chloro-3-fluorophenoxy)acetamido]bicyclo[1.1.1]pentan-1-yl}-1-benzofuran-3-carboxamide]: the EC50 fell in the range of 0.25 to 1 µM.
As for `O=C(COc1ccc(Cl)c(F)c1)NC12CC(NC(=O)c3cc(C4CC4)no3)(C1)C2` [Compound 244, N-{3-[2-(4-chloro-3-fluorophenoxy)acetamido]bicyclo[1.1.1]pentan-1-yl}-3-cyclopropyl-1,2-oxazole-5-carboxamide], the EC50 fell in the range of 0.05 to 0.25 µM.
Under `CC(C)c1nc(C(=O)NC23CC(NC(=O)COc4ccc(Cl)c(F)c4)(C2)C3)co1` [Compound 245, N-{3-[2-(4-chloro-3-fluorophenoxy)acetamido]bicyclo[1.1.1]pentan-1-yl}-2-(propan-2-yl)-1,3-oxazole-4-carboxamide] stands 0.25 to 1 µM; under `Cn1cc(C(=O)NC23CC(NC(=O)COc4ccc(Cl)c(F)c4)(C2)C3)cn1` [Compound 246, N-{3-[2-(4-chloro-3-fluorophenoxy)acetamido]bicyclo[1.1.1]pentan-1-yl}-1-methyl-1H-pyrazole-4-carboxamide], 0.25 to 1 µM.
In the case of `CCc1cc(C(=O)NC23CC(NC(=O)COc4ccc(Cl)c(F)c4)(C2)C3)no1` [Compound 247, N-{3-[2-(4-chloro-3-fluorophenoxy)acetamido]bicyclo[1.1.1]pentan-1-yl}-5-ethyl-1,2-oxazole-3-carboxamide], the EC50 fell in the range of 0.25 to 1 µM.
Under `O=C(COc1ccc(Cl)c(F)c1)NC12CC(NC(=O)c3coc(C4CC4)n3)(C1)C2` [Compound 248, N-{3-[2-(4-chloro-3-fluorophenoxy)acetamido]bicyclo[1.1.1]pentan-1-yl}-2-cyclopropyl-1,3-oxazole-4-carboxamide] stands 0.05 to 0.25 µM; under `Cc1nc(C(=O)NC23CC(NC(=O)COc4ccc(Cl)c(F)c4)(C2)C3)co1` [Compound 249, N-{3-[2-(4-chloro-3-fluorophenoxy)acetamido]bicyclo[1.1.1]pentan-1-yl}-2-methyl-1,3-oxazole-4-carboxamide], 0.05 to 0.25 µM; under `CCc1ccc(C(=O)NC23CC(NC(=O)COc4ccc(Cl)c(F)c4)(C2)C3)o1` [Compound 250, N-{3-[2-(4-chloro-3-fluorophenoxy)acetamido]bicyclo[1.1.1]pentan-1-yl}-5-ethylfuran-2-carboxamide], less than 0.05 µM.
For `CCc1nc(C(=O)NC23CC(NC(=O)COc4ccc(Cl)c(F)c4)(C2)C3)co1` [Compound 251, N-{3-[2-(4-chloro-3-fluorophenoxy)acetamido]bicyclo[1.1.1]pentan-1-yl}-2-ethyl-1,3-oxazole-4-carboxamide], the EC50 lay within 0.05 to 0.25 µM.
As for `CCn1cc(C(=O)NC23CC(NC(=O)COc4ccc(Cl)c(F)c4)(C2)C3)cn1` [Compound 252, N-{3-[2-(4-chloro-3-fluorophenoxy)acetamido]bicyclo[1.1.1]pentan-1-yl}-1-ethyl-1H-pyrazole-4-carboxamide], the EC50 lay in the range of 0.25 to 1 µM.
Next, `COc1cc(C(=O)NC23CC(NC(=O)COc4ccc(Cl)c(F)c4)(C2)C3)on1` [Compound 253, N-{3-[2-(4-chloro-3-fluorophenoxy)acetamido]bicyclo[1.1.1]pentan-1-yl}-3-methoxy-1,2-oxazole-5-carboxamide]: 0.05 to 0.25 µM; `CCc1cc(C(=O)NC23CC(NC(=O)COc4ccc(Cl)c(F)c4)(C2)C3)n(C)n1` [Compound 254, N-{3-[2-(4-chloro-3-fluorophenoxy)acetamido]bicyclo[1.1.1]pentan-1-yl}-3-ethyl-1-methyl-1H-pyrazole-5-carboxamide]: less than 0.05 µM; `CC(C)c1cc(C(=O)NC23CC(NC(=O)COc4ccc(Cl)c(F)c4)(C2)C3)no1` [Compound 255, N-{3-[2-(4-chloro-3-fluorophenoxy)acetamido]bicyclo[1.1.1]pentan-1-yl}-5-(propan-2-yl)-1,2-oxazole-3-carboxamide]: 0.25 to 1 µM.
Under `O=C(COc1ccc(Cl)c(F)c1)NC12CC(NC(=O)c3cc(C4CC4)on3)(C1)C2` [Compound 256, N-{3-[2-(4-chloro-3-fluorophenoxy)acetamido]bicyclo[1.1.1]pentan-1-yl}-5-cyclopropyl-1,2-oxazole-3-carboxamide] stands 0.25 to 1 µM; under `Cc1ncc(C(=O)NC23CC(NC(=O)COc4ccc(Cl)c(F)c4)(C2)C3)o1` [Compound 257, N-{3-[2-(4-chloro-3-fluorophenoxy)acetamido]bicyclo[1.1.1]pentan-1-yl}-2-methyl-1,3-oxazole-5-carboxamide], 0.05 to 0.25 µM; under `O=C(COc1ccc(Cl)c(F)c1)NC12CC(NC(=O)c3cnc4ccccn34)(C1)C2` [Compound 258, N-{3-[2-(4-chloro-3-fluorophenoxy)acetamido]bicyclo[1.1.1]pentan-1-yl}imidazo[1,2-a]pyridine-3-carboxamide], 0.25 to 1 µM.
For the compound `O=C(COc1ccc(Cl)c(F)c1)NC12CC(NC(=O)c3cc4n(n3)CCC4)(C1)C2` [Compound 259, N-{3-[2-(4-chloro-3-fluorophenoxy)acetamido]bicyclo[1.1.1]pentan-1-yl}-5,6-dihydro-4H-pyrrolo[1,2-b]pyrazole-2-carboxamide], the concentration for a half-maximal effect (EC50) lay within 0.25 to 1 µM.
Next, `COCn1ccc(C(=O)NC23CC(NC(=O)COc4ccc(Cl)c(F)c4)(C2)C3)n1` [Compound 260, N-{3-[2-(4-chloro-3-fluorophenoxy)acetamido]bicyclo[1.1.1]pentan-1-yl}-1-(methoxymethyl)-1H-pyrazole-3-carboxamide]: 0.25 to 1 µM; `O=C(COc1ccc(Cl)c(Cl)c1)NC12CC(NC(=O)c3ccncn3)(C1)C2` [Compound 261, N-{3-[2-(3,4-dichlorophenoxy)acetamido]bicyclo[1.1.1]pentan-1-yl}pyrimidine-4-carboxamide]: 0.25 to 1 µM; `O=C(COc1ccc(Cl)c(F)c1)NC12CC(NC(=O)c3ccc(F)cn3)(C1)C2` [Compound 262, N-{3-[2-(4-chloro-3-fluorophenoxy)acetamido]bicyclo[1.1.1]pentan-1-yl}-5-fluoropyridine-2-carboxamide]: 0.05 to 0.25 µM.
Under `O=C(COc1ccc(Cl)c(F)c1)NC12CC(NC(=O)c3cc(C(=O)NC4CC(F)(F)C4)ccn3)(C1)C2` [Compound 263, N^2-{3-[2-(4-chloro-3-fluorophenoxy)acetamido]bicyclo[1.1.1]pentan-1-yl}-N^4-(3,3-difluorocyclobutyl)pyridine-2,4-dicarboxamide] stands 0.25 to 1 µM.
On to `O=C(COc1ccc(Cl)cc1)NC12CC(Nc3nnc(-c4ccc(Cl)cc4)o3)(C1)C2` [Compound 264, 2-(4-chlorophenoxy)-N-(3-{[5-(4-chlorophenyl)-1,3,4-oxadiazol-2-yl]amino}bicyclo[1.1.1]pentan-1-yl)acetamide], for which the EC50 fell in the range of 0.25 to 1 µM.
Under `O=C(COc1ccc(Cl)cc1)NC12CC(Nc3cc(-c4ccc(Cl)cc4)on3)(C1)C2` [Compound 265, 2-(4-chlorophenoxy)-N-(3-{[5-(4-chlorophenyl)-1,2-oxazol-3-yl]amino}bicyclo[1.1.1]pentan-1-yl)acetamide] stands less than 0.05 µM; under `O=C(COc1ccc(Cl)c(F)c1)NC12CC(NC(=O)c3cnc(C4CC4)cn3)(C1)C2` [Compound 266, N-{3-[2-(4-chloro-3-fluorophenoxy)acetamido]bicyclo[1.1.1]pentan-1-yl}-5-cyclopropylpyrazine-2-carboxamide], 0.05 to 0.25 µM; under `O=C(COc1ccc(Cl)c(F)c1)NC12CC(NC(=O)c3ccc(-c4ccco4)cn3)(C1)C2` [Compound 267, N-{3-[2-(4-chloro-3-fluorophenoxy)acetamido]bicyclo[1.1.1]pentan-1-yl}-5-(furan-2-yl)pyridine-2-carboxamide], less than 0.05 µM.
As to `Cc1cnc(C(=O)NC23CC(NC(=O)COc4ccc(Cl)c(F)c4)(C2)C3)nc1` [Compound 268, N-{3-[2-(4-chloro-3-fluorophenoxy)acetamido]bicyclo[1.1.1]pentan-1-yl}-5-methylpyrimidine-2-carboxamide], the EC50 is 0.05 to 0.25 µM.
Under `CCNc1ccc(C(=O)NC23CC(NC(=O)COc4ccc(Cl)c(F)c4)(C2)C3)nc1` [Compound 269, N-{3-[2-(4-chloro-3-fluorophenoxy)acetamido]bicyclo[1.1.1]pentan-1-yl}-5-(ethylamino)pyridine-2-carboxamide] stands 0.25 to 1 µM; under `CCNC(=O)c1ccc(C(=O)NC23CC(NC(=O)COc4ccc(Cl)c(F)c4)(C2)C3)nc1` [Compound 270, N^2-{3-[2-(4-chloro-3-fluorophenoxy)acetamido]bicyclo[1.1.1]pentan-1-yl}-N^5-ethylpyridine-2,5-dicarboxamide], more than 2 µM; under `O=C(COc1ccc(Cl)cc1)NC12CC(Nc3nnc(-c4ccc(Cl)cc4)s3)(C1)C2` [Compound 271, 2-(4-chlorophenoxy)-N-(3-{[5-(4-chlorophenyl)-1,3,4-thiadiazol-2-yl]amino}bicyclo[1.1.1]pentan-1-yl)acetamide], 0.25 to 1 µM.
Take `Cc1cc(C(=O)NC23CCC(NC(=O)COc4ccc(Cl)c(F)c4)(CC2)C(O)C3)no1` (centres unmarked) [Compound 272, N-{4-[2-(4-chloro-3-fluorophenoxy)acetamido]-3-hydroxybicyclo[2.2.2]octan-1-yl}-5-methyl-1,2-oxazole-3-carboxamide]: the EC50 lay in the range of 0.05 to 0.25 µM.
As to `Cc1cc(C(=O)NC23CC(NC(=O)COc4ccc(Cl)c(F)c4)(C2)C3)no1` [Compound 273, N-{3-[2-(4-chloro-3-fluorophenoxy)acetamido]bicyclo[1.1.1]pentan-1-yl}-5-methyl-1,2-oxazole-3-carboxamide], the EC50 lay in the range of 0.25 to 1 µM.
Take `COc1nccnc1C(=O)NC12CCC(NC(=O)COc3ccc(Cl)c(F)c3)(CC1)C(O)C2` (centres unmarked) [Compound 274, N-{4-[2-(4-chloro-3-fluorophenoxy)acetamido]-3-hydroxybicyclo[2.2.2]octan-1-yl}-3-methoxypyrazine-2-carboxamide]: the EC50 fell in the range of 0.25 to 1 µM.

(Values after patent US10913727B2, “Modulators of the integrated stress pathway” (Calico Life Sciences LLC, priority 2016, dated 2021).)
